Measured values taken from patent US20090149453A1, “METHODS AND COMPOSITIONS FOR TREATING BACTERIAL INFECTIONS AND DISEASES ASSOCIATED THEREWITH” (ACTIVBIOTICS PHARMA LLC, priority 2002, published 2009).
Converted amounts (≈) assume the structure as drawn. “Also recorded” adds a separate entry of the source. Like-named read-outs stand apart in the source and are kept apart here.

Legend:
Type in all cases: cell-based, Staphylococcus aureus
S. aureus = assay: Frequency of resistant mutants; details: resistance to Rfz
Description: (§1) For log-phase studies, cells were grown to an optical density of 0.5 at 600 nm, which represents a culture density of 5×10^8 colony forming units (cfu)/ml for S. aureus and deviates from densities typically used in time-kill type assays (1×10^7 cfu/ml). We chose to start at a higher density because this density is more likely to reflect in vivo bioburden than lower starting densities. In addition, this starting density is critical for monitoring the emergence of ansamycin-resistant mutants because it insures that there is a starting resident population of such resistant mutants at the start of the experiment. The 10^−8 frequency of mutants to Rfz leads to a theoretical number of five mutants per ml of culture at this cell density.

S. aureus 29213 = assay: MIC testing according to NCCLS standard; details: S. aureus 29213, NCCLS standard MIC testing
[1] = test system: S. aureus strain ATCC 29213, log-phase
Description: In order to characterize the population of the cultures shown in FIG. 1, aliquots at the various time points/treatments were tested for the presence of Rif-resistant mutants.
Cultures were also examined as described above for the number of cfu/ml present that were resistant to Rif (FIG. 4).
as §1
(§2) For stationary phase studies, cultures were grown to an optical density of 2.2 to 2.4 at 600 nm, which represents approximately 5×10^9 cfu/ml; there would exist approximately 50 resistant mutants per nil in such a stationary phase culture. Drugs were added to the cultures to start the experiment, and then aliquots were removed at various time points, diluted in MHB if appropriate, and applied to 100 mm MHA and MHA plates containing Rif at 1 μg/ml. These plates were incubated at 35° C. for 18-24 hours, and then colonies manually counted to determine the number of cfu per nil of culture for the specific time-point/treatment. […] The Rif-containing plates were used to determine the number of Rfz-resistant bacteria present in the cultures for the specific time-point/treatment. Untreated control cultures were included in each experiment.

[2] = test system: S. aureus 29213, stationary-phase; assay: Viability (cfu/ml) of stationary-phase cultures exposed to drugs; details: for killing effect against stationary phase cultures (summary, words): stationary phase (non-multiplying), alone or in combination; for log killing of stationary-phase cultures: summary, over 48 hours, single drugs or combination
Description: Cultures of S. aureus 29213 were grown to stationary-phase (an OD of 2.2 to 2.4 at 600 nm), then treated with Van and Rfz, either alone or in combination (FIG. 5; concentrations listed are in μg/ml). Rfz was used at 0.1 μg/ml, while Van was used at 15 μg/ml and 30 μg/ml, the latter concentration based on the fact that the starting culture was at a much higher density than was the log-phase cultures used in the experiments described above. It was assumed that more Van might be required to give a prolonged killing effect. In addition, one culture was treated with 15 μg/ml Van at the start of the experiment and then again 24 hours later. At 0, 24 and 48 hours, the number of viable cells was determined by plating on non-selective medium as described above.
The bacterial strain used in this study was “wild-type” S. aureus strain ATCC 29213. The strain was grown in Mueller Hinton II Broth (MHB; cationadjusted; VWR) and on Mueller Hinton Agar (MHA; VWR) plates that were made according to the manufacturer's instructions. Van (Calbiochem) was resuspended in sterile water (Fisher) at 10 mg/ml, while Rif (Calbiochem) and Rfz (ActivBiotics) were resuspended in 100% DMSO (J. T. Baker) at 1 mg/ml. All drugs were stored at −80° C. in single-use aliquots.
S. aureus strain ATCC 29213 was grown on an MHA plate at 35° C. for 18 hours. Colonies (3-5) were used to inoculate 50-100 ml of cation-adjusted MHB in a 500 ml Ehrlenmeyer flask and grown at 37° C. in a water bath shaker at 240 rpm.
as §2

[3] = test system: S. aureus strain ATCC 29213, log-phase; assay: Viability (cfu/ml) of log-phase cultures exposed to drugs, plated on non-selective MHA; details: for decrease in cfu/ml: drug alone: Rif 0.1 μg/ml (initial drop), Van 10 μg/ml
[4] = test system: S. aureus 29213, stationary-phase; assay: Rif-resistant cfu/ml in drug-treated stationary-phase cultures; details: Example 3, stationary-phase, Van or Rfz alone; Van 15 μg/ml plus Rfz 0.1 μg/ml
Description: The emergence of Rif/Rfz-resistant cells in cultures in these experiments was monitored as previously described; the results are shown in FIG. 6.
as §2

Compound | frequency of mutants (S. aureus) | MIC (S. aureus 29213) [mg/L] | Rif-resistant cfu ([1]; Example 1, log-phase, 0.1 μg/ml alone, in 24 hours) [logs] | appearance of Rif-resistant cfu in log-phase cultures (summary, words) ([1]; log-phase, Rfz single agent or co-treatment with Van) | decrease of cfu ([2]; Example 3, stationary-phase, Rfz 0.1 μg/ml alone) | killing effect against stationary phase cultures (summary, words) [2] | log killing of stationary-phase cultures [2] | drop in cfu/ml (logs killed) ([3]; Example 1, log-phase, 0.1 μg/ml alone, in 4 hours) | reduction of cfu/ml of the culture (cidality) ([3]; Example 2, log-phase, Rfz 0.1 μg/ml (6.5× MIC) alone, within 6 hours) | cfu/ml level after regrowth ([3]; Example 2, log-phase, Rfz alone 0.1 or 0.025 μg/ml, over 48 hours) | reduction of cfu/ml at the lower concentration compared to the higher ([3]; log-phase, Rfz 0.025 μg/ml (1.6× MIC) vs 0.1 μg/ml (6.5× MIC)) | emergence of Rif/Rfz-resistant colonies [4] | MIC (S. aureus 29213; Staphylococcus aureus, read-out: MIC) [mg/L] | Rif-resistant cfu [1] [logs] | decrease in cfu/ml ([3]; Example 1, log-phase) [log] | emergence of Rif-resistant cells ([1]; Example 1, log-phase, Van 10 μg/ml alone or with Rif/Rfz 0.1 μg/ml) | viability of the cultures during treatment ([2]; Example 3, stationary-phase, Van alone 15 or 30 μg/ml) | significant killing ([3]; log-phase dense cultures, Van alone, after 48 hours of treatment) [logs] | killing effect at increased concentration ([3]; log-phase, vancomycin alone 15 μg/ml)
3′-hydroxy-5′-(4-isobutyl-1-piperazinyl) benzoxazinorifamycin [Rfz] | 10^−8 | 0.015 | 8 | dramatic increase in Rif-resistant cfu/ml within 10 hours | about 1 log | little or no killing effect | approximately 1 log | approximately 3.5 logs | approximately 3 logs | approximately 10×10^8 cfu/ml | just as effective; also recorded: as effective as 6.5× the MIC levels | Resistant colonies did not appear | – | – | – | – | – | – | –
CO[C@H]1/C=C/O[C@@]2(C)Oc3c(C)c(O)c4c(O)c(c(/C=N/N5CCN(C)CC5)c(O)c4c3C2=O)NC(=O)/C(C)=C\C=C\[C@H](C)[C@H](O)[C@@H](C)[C@@H](O)[C@@H](C)[C@H](OC(C)=O)[C@@H]1C [Rif, rifampicin, reference compound] | – | – | – | – | – | – | – | – | – | – | – | – | 0.015 (≈ 0.0182 µM) | 8 | ~2.5 | – | – | – | –
CN[C@H](CC(C)C)C(=O)N[C@H]1C(=O)N[C@@H](CC(N)=O)C(=O)N[C@H]2C(=O)N[C@H]3C(=O)N[C@H](C(=O)N[C@H](C(=O)O)c4cc(O)cc(O)c4-c4cc3ccc4O)[C@H](O)c3ccc(c(Cl)c3)Oc3cc2cc(c3O[C@@H]2O[C@H](CO)[C@@H](O)[C@H](O)[C@H]2O[C@H]2C[C@](C)(N)[C@H](O)[C@H](C)O2)Oc2ccc(cc2Cl)[C@H]1O [Van, vancomycin, reference compound] | – | – | – | – | – | little or no killing effect | approximately 1 log | – | – | – | – | Resistant colonies did not appear | – | – | 0.5 | little or no increase in the number of Rif-resistant cells | did not decrease significantly | 3 | sufficient for sustained killing
